Results on four compounds are retold here after US20260176320A1, “MODULATORS OF G-PROTEIN COUPLED RECEPTORS” (priority 2018, published 2026).

Where two headings read alike, the source gives them in different places.

For data set [1], the target named is T1, GLP-1R (Homo sapiens, UniProt P43220). The data set is described as follows: HitHunter cAMP assay (GLP-1R). In kind it is cell-based. The note with it: cAMP; for Emax: read-out: (Emax) GLP-1R. An outline of the steps: (§1)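 Duplicate 22-point, 2-fold agonist titrations applied to receptor-expressing suspension cells in IBMX-containing HBSS; 30 min RT stimulation. Read: luminescent cAMP immunocompetition after O/N dark incubation.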
(Cyclic AMP is a second messenger, typically raised through Gs and lowered through Gi signalling.)

The next data set concerns the target T2, GIP-R (Homo sapiens, UniProt P48546).
T2 sequence (P48546 22-466): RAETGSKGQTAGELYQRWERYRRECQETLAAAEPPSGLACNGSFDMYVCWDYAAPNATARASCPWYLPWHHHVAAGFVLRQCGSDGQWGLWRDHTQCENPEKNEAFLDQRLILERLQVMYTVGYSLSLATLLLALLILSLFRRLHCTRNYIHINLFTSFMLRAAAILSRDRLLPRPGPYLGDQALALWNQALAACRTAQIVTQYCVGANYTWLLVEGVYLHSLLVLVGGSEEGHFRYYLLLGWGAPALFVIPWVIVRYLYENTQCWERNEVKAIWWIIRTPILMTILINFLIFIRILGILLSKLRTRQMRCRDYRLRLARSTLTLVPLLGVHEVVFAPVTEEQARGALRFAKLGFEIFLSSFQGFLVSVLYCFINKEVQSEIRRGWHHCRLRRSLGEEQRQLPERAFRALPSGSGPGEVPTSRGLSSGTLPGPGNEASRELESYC
The data set is described as follows: HitHunter cAMP assay (GIP-R). In kind it is cell-based. The note with it: cAMP; for Emax: read-out: (Emax) GIP-R. An outline of the steps: as §1

Data set [2] concerns the target T1, GLP-1R. Kind of data set: PathHunter β-arrestin assay. In kind it is cell-based. The gist of the method: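 Following a 90 min agonist exposure at 37 °C in 0.2% BSA medium, β-arrestin coupling was detected by chemiluminescence after 3 h at room temperature.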
Data set [3] concerns mice. Kind of data set: Conditioned taste aversion (CTA) in mice. Type of data set: in vivo, mouse. Particulars: s.c., 30 nmol/kg, saccharine preference vs vehicle. How it is done:
A value of CTA=0.0-0.6 indicates significant aversion to a compound. The conditioned taste aversion assay measures the preference for a dilute saccharin solution that is associated with compound administration.
One week before start of experiment (Day-7), animals were transferred to single house double grommet cages. A 50 ml water bottle was placed, and consistently replaced when refilled in the same grommet to habituate the animal to a “water” side. After 7 days of baseline water consumption, animals began the taste preference procedure. On Day 1, the animals were weighed and deprived of water at […]. On acquisition day (Day 2), mice had access to a single bottle containing 0.15% saccharin solution, on the opposite side to the “water” habituated side and allowed to consume for 3 h, from 6 pm until 9 pm. The saccharine bottles were then removed and weighed to record the 3 h consumption. […] On Day 3, the water was removed and weighed at 6 pm. On Day 4, both saccharine and water bottles were weighed and returned simultaneously to respective grommet at 6 pm. On Day 5, the bottles were removed at 6 pm and weighed. Saccharine consumption was measured as a percent of the total amount of fluid consumed. The reduction of saccharin consumption during the retrieval was used as a measure of CTA strength. Liraglutide and semaglutide were used as positive controls.

Data set [4] has as its system mice. The data set is described as follows: Glucose tolerance test (GTT). Particulars: 24 h GTT, s.c., percent of vehicle. In kind it is in vivo, mouse. The gist of the method: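 Compounds diluted in PBS from 1 mM DMSO stocks and given subcutaneously 15 min (5-6 h fast), 4 h (16 h overnight fast), 16 h or 24 h before intraperitoneal glucose (2 g/kg). Tail blood glucose read at 10–120 min post-glucose, at least 6 mice per time-point. Glucose AUC over time determined.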

T1 sequence (P43220 24-463): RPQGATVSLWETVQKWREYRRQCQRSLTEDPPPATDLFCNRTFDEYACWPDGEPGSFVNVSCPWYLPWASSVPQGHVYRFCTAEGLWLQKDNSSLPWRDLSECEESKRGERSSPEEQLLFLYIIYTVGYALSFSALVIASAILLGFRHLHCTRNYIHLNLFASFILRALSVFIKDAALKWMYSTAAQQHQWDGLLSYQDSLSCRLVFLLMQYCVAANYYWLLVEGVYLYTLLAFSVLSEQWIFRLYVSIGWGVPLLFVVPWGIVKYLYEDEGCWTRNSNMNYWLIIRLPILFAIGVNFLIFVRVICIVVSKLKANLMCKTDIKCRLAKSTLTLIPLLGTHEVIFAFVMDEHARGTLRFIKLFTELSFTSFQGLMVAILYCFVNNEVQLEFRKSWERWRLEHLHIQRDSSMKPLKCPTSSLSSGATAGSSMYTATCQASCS

As usually defined, the Emax is the maximal effect, on the per cent scale that the assay sets. With `CCCCCCCCCCCCCCCC(=O)N[C@@H](CCC(=O)NCCCC[C@H](NC(=O)[C@H](CO)NC(=O)[C@@H]1CCCN1C(=O)[C@@H]1CCCN1C(=O)[C@@H]1CCCN1C(=O)[C@H](C)NC(=O)CNC(=O)[C@H](CO)NC(=O)[C@H](CO)NC(=O)[C@@H]1CCCN1C(=O)CNC(=O)CNC(=O)[C@H](C)NC(=O)[C@H](CC(C)C)NC(=O)[C@H](CC(C)C)NC(=O)[C@H](Cc1c[nH]c2ccccc12)NC(=O)[C@H](CC(N)=O)NC(=O)[C@@H](NC(=O)[C@H](Cc1ccccc1)NC(=O)[C@H](CCC(=O)O)NC(=O)C(C)(C)NC(=O)[C@H](C)NC(=O)[C@H](C)NC(=O)[C@H](CCC(N)=O)NC(=O)[C@H](CCCCN)NC(=O)[C@H](CC(=O)O)NC(=O)[C@H](CC(C)C)NC(=O)[C@H](Cc1ccc(O)cc1)NC(=O)[C@@H](NC(=O)[C@H](CO)NC(=O)[C@H](Cc1ccc(O)cc1)NC(=O)[C@H](CC(=O)O)NC(=O)[C@H](CO)NC(=O)[C@@H](NC(=O)[C@H](Cc1ccccc1)NC(=O)[C@@H](NC(=O)CNC(=O)[C@H](CCC(=O)O)NC(=O)CSCC(=O)NCCN1CCC(O)CC1=O)[C@@H](C)O)[C@@H](C)O)[C@@H](C)CC)C(C)C)C(N)=O)C(=O)O` (single isomer, unassigned) [Compound 202], the EC50 at GLP-1R [1] (EC50 GLP-1R/nM, Table 3A) is under 0.1 nM; at GIP-R (EC50 GIP-R/nM, Table 3A), 0.1 to 1 nM; on GLP-1R [2] it was over 1000 nM. The Emax at GIP-R (Table 3A) amounted to 67%. The CTA score in the data set on mice [3] is given as 4 (Score 4 = 76-100%).
As to `CCCCCCCCCCCCCCCC(=O)N[C@@H](CCC(=O)NCCCC[C@H](NC(=O)[C@H](CO)NC(=O)[C@@H]1CCCN1C(=O)[C@@H]1CCCN1C(=O)[C@@H]1CCCN1C(=O)[C@H](C)NC(=O)CNC(=O)[C@H](CO)NC(=O)[C@H](CO)NC(=O)[C@@H]1CCCN1C(=O)CNC(=O)CNC(=O)[C@H](C)NC(=O)[C@H](CC(C)C)NC(=O)[C@H](CC(C)C)NC(=O)[C@H](Cc1c[nH]c2ccccc12)NC(=O)[C@H](CC(N)=O)NC(=O)[C@@H](NC(=O)[C@H](Cc1ccccc1)NC(=O)[C@H](CCC(=O)O)NC(=O)C(C)(C)NC(=O)[C@H](C)NC(=O)[C@H](C)NC(=O)[C@H](CCC(N)=O)NC(=O)[C@H](CCCCN)NC(=O)[C@H](CC(=O)O)NC(=O)[C@H](CC(C)C)NC(=O)[C@H](Cc1ccc(O)cc1)NC(=O)[C@@H](NC(=O)[C@H](CO)NC(=O)[C@H](Cc1ccc(O)cc1)NC(=O)[C@H](CC(=O)O)NC(=O)[C@H](CO)NC(=O)[C@@H](NC(=O)[C@H](Cc1ccccc1)NC(=O)[C@@H](NC(=O)CNC(=O)[C@H](CCC(=O)O)NC(=O)CSCC(=O)NCCN1C(=O)C[C@H](C)C1=O)[C@@H](C)O)[C@@H](C)O)[C@@H](C)CC)C(C)C)C(N)=O)C(=O)O` [Compound 91], the EC50 at GLP-1R [1] (EC50 GLP-1R/nM, Table 3) is 1 to 10 nM; on GLP-1R [1] (EC50 GLP-1R/nM, Table 3A) it was 1 to 10 nM; on GIP-R (EC50 GIP-R/nM, Table 3), 1 to 10 nM; on GIP-R (EC50 GIP-R/nM, Table 3A) it was 1 to 10 nM; on GLP-1R [2], over 1000 nM. The Emax at GLP-1R [1] (Table 3) was found to be 98%; at GLP-1R [1] (Table 3A) it was 98%; at GIP-R (Table 3) it was 85%; at GIP-R (Table 3A), 85%. Moreover, the AUC score with mice [4] (dose range 2-5 nmol/kg) is listed as 3 (AUC score 3 = 51-75%). Besides, the CTA score with mice [3] is recorded as 4 (Score 4 = 76-100%).
`CCCCCCCCCCCCCCCC(=O)N[C@@H](CCC(=O)NCCCC[C@H](NC(=O)[C@H](CO)NC(=O)[C@@H]1CCCN1C(=O)[C@@H]1CCCN1C(=O)[C@@H]1CCCN1C(=O)[C@H](C)NC(=O)CNC(=O)[C@H](CO)NC(=O)[C@H](CO)NC(=O)[C@@H]1CCCN1C(=O)CNC(=O)CNC(=O)[C@H](C)NC(=O)[C@H](CC(C)C)NC(=O)[C@H](CC(C)C)NC(=O)[C@H](Cc1c[nH]c2ccccc12)NC(=O)[C@H](CC(N)=O)NC(=O)[C@@H](NC(=O)[C@H](Cc1ccccc1)NC(=O)[C@H](CCC(=O)O)NC(=O)C(C)(C)NC(=O)[C@H](C)NC(=O)[C@H](C)NC(=O)[C@H](CCC(N)=O)NC(=O)[C@H](CCCCN)NC(=O)[C@H](CC(=O)O)NC(=O)[C@H](CC(C)C)NC(=O)[C@H](Cc1ccc(O)cc1)NC(=O)[C@@H](NC(=O)[C@H](CO)NC(=O)[C@H](Cc1ccc(O)cc1)NC(=O)[C@H](CC(=O)O)NC(=O)[C@H](CO)NC(=O)[C@@H](NC(=O)[C@H](Cc1ccccc1)NC(=O)[C@@H](NC(=O)CNC(=O)[C@H](CCC(=O)O)NC(=O)CSCC(=O)NCCN1C(=O)[C@@H](C)[C@@H](C)C1=O)[C@@H](C)O)[C@@H](C)O)[C@@H](C)CC)C(C)C)C(N)=O)C(=O)O` [Compound 96]: the EC50 is 1 to 10 nM at GLP-1R [1] (EC50 GLP-1R/nM, Table 3); 1 to 10 nM at GLP-1R [1] (EC50 GLP-1R/nM, Table 3A); 0.1 to 1 nM at GIP-R (EC50 GIP-R/nM, Table 3); 0.1 to 1 nM on GIP-R (EC50 GIP-R/nM, Table 3A); over 1000 nM on GLP-1R [2]. Besides, the Emax on GLP-1R [1] (Table 3) came out at 94%; at GLP-1R [1] (Table 3A) it was 94%; at GIP-R (Table 3), 90%; on GIP-R (Table 3A), 90%. Also, the AUC score in the data set with mice [4] (dose range 5.1-15 nmol/kg) is reported as 4 (AUC score 4 = 76-100%). Moreover, the CTA score in the data set with mice [3] is reported as 4 (Score 4 = 76-100%).
In the case of `CCCCCCCCCCCCCCCC(=O)N[C@@H](CCC(=O)NCCCC[C@H](NC(=O)[C@H](CO)NC(=O)[C@@H]1CCCN1C(=O)[C@@H]1CCCN1C(=O)[C@@H]1CCCN1C(=O)[C@H](C)NC(=O)CNC(=O)[C@H](CO)NC(=O)[C@H](CO)NC(=O)[C@@H]1CCCN1C(=O)CNC(=O)CNC(=O)[C@H](C)NC(=O)[C@H](CC(C)C)NC(=O)[C@H](CC(C)C)NC(=O)[C@H](Cc1c[nH]c2ccccc12)NC(=O)[C@H](CC(N)=O)NC(=O)[C@@H](NC(=O)[C@H](Cc1ccccc1)NC(=O)[C@H](CCC(=O)O)NC(=O)C(C)(C)NC(=O)[C@H](C)NC(=O)[C@H](C)NC(=O)[C@H](CCC(N)=O)NC(=O)[C@H](CCCCN)NC(=O)[C@H](CC(=O)O)NC(=O)[C@H](CC(C)C)NC(=O)[C@H](Cc1ccc(O)cc1)NC(=O)[C@@H](NC(=O)[C@H](CO)NC(=O)[C@H](Cc1ccc(O)cc1)NC(=O)[C@H](CC(=O)O)NC(=O)[C@H](CO)NC(=O)[C@@H](NC(=O)[C@H](Cc1ccccc1)NC(=O)[C@@H](NC(=O)CNC(=O)[C@H](CCC(=O)O)NC(=O)CCNC(=O)CN1CCCCCC1=O)[C@@H](C)O)[C@@H](C)O)[C@@H](C)CC)C(C)C)C(N)=O)C(=O)O` [Compound 266], the Emax at GLP-1R [1] (Table 3A) amounted to 100%; at GIP-R (Table 3A) it was 70%. For the same compound, the EC50 is under 0.1 nM on GLP-1R [1] (Table 3A, read-out: EC50 GLP-1R/nM); 1 to 10 nM on GIP-R (Table 3A, read-out: EC50 GIP-R/nM); under 10 nM on GLP-1R [2] (PathHunter β-arrestin assay, read-out: β-arrestin activity EC50). The AUC score in the data set with mice [4] (dose range 2-5 nmol/kg) was 2 (AUC score 2 = 26-50%).
